Source: patent US9732081B2, “1,6-diazabicyclo [3,2,1] octan-7-one derivatives and their use in the treatment of bacterial infections” (WOCKHARDT LIMITED, priority 2012, dated 2017)
≈ marks a conversion by molar mass, not a printed value. Where two headings read alike, the source gives them in different places.

Assays:
Type in all cases: cell-based
E. Coli W 13352 = experiment: Antibacterial activity (MIC, agar dilution per CLSI) against E. Coli W 13352; details: for MIC: Escherichia coli
Experimental: (§1) The biological activity of representative compounds according to the invention against various bacterial strains was investigated. In a typical study, overnight grown bacterial cultures were diluted appropriately and inoculated on the agar media containing doubling dilutions of the test compounds. Observation for growth or no growth was performed after 16-20 hours of incubation at 35±2° C. in ambient air. The overall procedure was performed as per Clinical and Laboratory Standards Institute (CLSI) recommendations (Clinical and Laboratory Standards Institute (CLSI), Performance Standards for Antimicrobial Susceptibility Testing, 20th Informational Supplement, M 100-S20, Volume 30, No. 1, 2010).
(§2) The activities are expressed as MICs (mcg/ml).

E. Coli W 13351 = experiment: Antibacterial activity (MIC, agar dilution per CLSI) against E. Coli W 13351; details: for MIC: Escherichia coli
Experimental: as §1, §2

E. Coli M 50 = experiment: Antibacterial activity (MIC, agar dilution per CLSI) against E. Coli M 50; details: for MIC: Escherichia coli
Experimental: as §1, §2

E. Coli W 13353 = experiment: Antibacterial activity (MIC, agar dilution per CLSI) against E. Coli W 13353; details: for MIC: Escherichia coli
Experimental: as §1, §2

P. aeruginosa Ps 21 = experiment: Antibacterial activity (MIC, agar dilution per CLSI) against P. aeruginosa Ps 21; details: for MIC: Pseudomonas aeruginosa
Experimental: as §1, §2

P. aeruginosa Ps 32 = experiment: Antibacterial activity (MIC, agar dilution per CLSI) against P. aeruginosa Ps 32; details: for MIC: Pseudomonas aeruginosa
Experimental: as §1, §2

E. Coli H 483 = experiment: Antibacterial activity (MIC, agar dilution per CLSI) against E. Coli H 483; details: for MIC: Escherichia coli, read-out: MIC E. Coli H 483
Experimental: as §1, §2

[1] = MDR Gram negative strain, Class A ESBL, 16-20 hours at 35±2° C., read-out: MIC E. Coli W 13352
[2] = MDR Gram negative strain, Class A ESBL, 16-20 hours at 35±2° C., read-out: MIC E. Coli W 13351
[3] = MDR Gram negative strain, Class C ESBL, 16-20 hours at 35±2° C., read-out: MIC E. Coli M 50
[4] = MDR Gram negative strain, Class A ESBL, 16-20 hours at 35±2° C., read-out: MIC E. Coli W 13353
[5] = PS21, MDR P. aeruginosa strain, agar dilution, 16-20 hours at 35±2° C., read-out: MIC Ps 21
[6] = PS32, MDR P. aeruginosa strain, agar dilution, 16-20 hours at 35±2° C., read-out: MIC Ps 32
[7] = MDR Gram negative strain, Class C ESBL, agar dilution, 16-20 hours at 35±2° C.
[8] = MDR Gram negative strain, Class A ESBL, 16-20 hours at 35±2° C.
[9] = MDR Gram negative strain, Class C ESBL, 16-20 hours at 35±2° C.
[10] = MDR P. aeruginosa strain, agar dilution, 16-20 hours at 35±2° C.

| MIC (E. Coli W 13352; [1]) | MIC (E. Coli W 13351; [2]) | MIC (E. Coli M 50; [3]) | MIC (E. Coli W 13353; [4]) | MIC (P. aeruginosa Ps 21; [5]) | MIC (P. aeruginosa Ps 32; [6]) | MIC (E. Coli H 483; [7]) | Structure (SMILES) | MIC E. Coli W 13352 (E. Coli W 13352; [8]) | MIC E. Coli W 13351 (E. Coli W 13351; [8]) | MIC E. Coli M 50 (E. Coli M 50; [9]) | MIC E. Coli W 13353 (E. Coli W 13353; [8]) | further results |
| --- | --- | --- | --- | --- | --- | --- | --- | --- | --- | --- | --- | --- |
| 0.25 µg/mL (≈ 0.835 µM) | 0.25 µg/mL (≈ 0.835 µM) | 0.5 µg/mL (≈ 1.67 µM) | 0.25 µg/mL (≈ 0.835 µM) | > 32 µg/mL | > 32 µg/mL | 1 µg/mL (≈ 3.34 µM) | C[C@@H](O)[C@H]1C(=O)N2C(C(=O)O)=C(SCCN=CN)C[C@H]12 [Imipenem, reference compound] | – | – | – | – | – |
| 2 µg/mL (≈ 5.49 µM) | 2 µg/mL (≈ 5.49 µM) | 1 µg/mL (≈ 2.74 µM) | 1 µg/mL (≈ 2.74 µM) | > 32 µg/mL | > 32 µg/mL | > 32 µg/mL | O=C(NOC[C@H]1CCCN1)[C@@H]1CC[C@@H]2CN1C(=O)N2OS(=O)(=O)O [Example 2, (2S,5R)-7-oxo-N-[(2R)-pyrrolidin-2-ylmethyloxy]-6-(sulfooxy)-1,6-diazabicyclo[3.2.1]octane-2-carboxamide] | – | – | – | – | – |
| 16 µg/mL (≈ 43.9 µM) | 16 µg/mL (≈ 43.9 µM) | 8 µg/mL (≈ 22 µM) | 8 µg/mL (≈ 22 µM) | > 32 µg/mL | > 32 µg/mL | > 32 µg/mL | O=C(NOC[C@H]1CCNC1)[C@@H]1CC[C@@H]2CN1C(=O)N2OS(=O)(=O)O [Example 3, (2S,5R)-7-oxo-N-[(3S)-pyrrolidin-3-ylmethyloxy]-6-(sulfooxy)-1,6-diazabicyclo[3.2.1]octane-2-carboxamide] | – | – | – | – | – |
| 8 µg/mL (≈ 22 µM) | 8 µg/mL (≈ 22 µM) | 8 µg/mL (≈ 22 µM) | 8 µg/mL (≈ 22 µM) | > 32 µg/mL | > 32 µg/mL | > 32 µg/mL | O=C(NOC[C@@H]1CCNC1)[C@@H]1CC[C@@H]2CN1C(=O)N2OS(=O)(=O)O [Example 4, (2S,5R)-7-oxo-N-[(3R)-pyrrolidin-3-ylmethyloxy]-6-(sulfooxy)-1,6-diazabicyclo[3.2.1]octane-2-carboxamide] | – | – | – | – | – |

Further lines, the compound ahead of its results:

| Structure (SMILES) | MIC (E. Coli W 13352; [1]) | MIC (E. Coli W 13351; [2]) | MIC (E. Coli M 50; [3]) | MIC (E. Coli W 13353; [4]) | MIC (P. aeruginosa Ps 21; [5]) | MIC (P. aeruginosa Ps 32; [6]) | MIC (E. Coli H 483; [7]) | MIC E. Coli W 13352 (E. Coli W 13352; [8]) | MIC E. Coli W 13351 (E. Coli W 13351; [8]) | MIC E. Coli M 50 (E. Coli M 50; [9]) | MIC E. Coli W 13353 (E. Coli W 13353; [8]) | further results |
| --- | --- | --- | --- | --- | --- | --- | --- | --- | --- | --- | --- | --- |
| O=C(NOC[C@@H]1CCCCN1)[C@@H]1CC[C@@H]2CN1C(=O)N2OS(=O)(=O)O [Example 19, (2S,5R)-7-oxo-N-((2S)piperidin-2-ylmethyloxy)-6-(sulfooxy)-1,6-diazabicyclo[3.2.1]octane-2-carboxamide] | – | – | – | – | – | – | – | 16 µg/mL (≈ 42.3 µM) | 8 µg/mL (≈ 21.1 µM) | 8 µg/mL (≈ 21.1 µM) | 4 µg/mL (≈ 10.6 µM) | MIC Ps 21 (P. aeruginosa Ps 21; [10]): >32 µg/mL; MIC Ps 32 (P. aeruginosa Ps 32; [10]): >32 µg/mL; MIC E. Coli H 483 (E. Coli H 483; [7]): >32 µg/mL |
| O=C(NOCC1CCCCN1)[C@@H]1CC[C@@H]2CN1C(=O)N2OS(=O)(=O)O (stereo partly drawn) [Example 17, (2S,5R)-7-oxo-N-((2R,S)piperidin-2-ylmethyloxy)-6-(sulfooxy)-1,6-diazabicyclo[3.2.1]octane-2-carboxamide] | – | – | – | – | – | – | – | 1 µg/mL (≈ 2.64 µM) | 1 µg/mL (≈ 2.64 µM) | 0.5 µg/mL (≈ 1.32 µM) | 0.5 µg/mL (≈ 1.32 µM) | MIC Ps 21 (P. aeruginosa Ps 21; [10]): >32 µg/mL; MIC Ps 32 (P. aeruginosa Ps 32; [10]): >32 µg/mL; MIC E. Coli H 483 (E. Coli H 483; [7]): >32 µg/mL |
| CN(C)c1cc(NC(=O)CNC(C)(C)C)c(O)c2c1C[C@H]1C[C@H]3[C@H](N(C)C)C(O)=C(C(N)=O)C(=O)[C@@]3(O)C(O)=C1C2=O [Tigecyclin, Tigecycline, reference compound] | – | – | – | – | – | – | – | – | – | – | – | MIC (E. Coli W 13352; read-out: MIC E. Coli W 13352, MDR Gram negative strain, Class A ESBL, 16-20 hours at 35±2° C.): 0.25 µg/mL (≈ 0.427 µM); MIC (E. Coli W 13351; read-out: MIC E. Coli W 13351, MDR Gram negative strain, Class A ESBL, 16-20 hours at 35±2° C.): 1 µg/mL (≈ 1.71 µM); MIC (E. Coli M 50; read-out: MIC E. Coli M 50, MDR Gram negative strain, Class C ESBL, 16-20 hours at 35±2° C.): 0.5 µg/mL (≈ 0.854 µM); MIC (E. Coli W 13353; read-out: MIC E. Coli W 13353, MDR Gram negative strain, Class A ESBL, 16-20 hours at 35±2° C.): 1 µg/mL (≈ 1.71 µM); MIC (P. aeruginosa Ps 21; PS21, read-out: MIC Ps 21): 16 µg/mL (≈ 27.3 µM); MIC (P. aeruginosa Ps 32; PS32, read-out: MIC Ps 32): 16 µg/mL (≈ 27.3 µM); MIC (E. Coli H 483): 0.5 µg/mL (≈ 0.854 µM) |
| CC(C)(O/N=C(\C(=O)N[C@@H]1C(=O)N2C(C(=O)[O-])=C(C[n+]3ccccc3)CS[C@H]12)c1csc(N)n1)C(=O)O [Ceftazidime, reference compound] | > 32 µg/mL | 32 µg/mL (≈ 58.5 µM) | > 32 µg/mL | 32 µg/mL (≈ 58.5 µM) | > 32 µg/mL | > 32 µg/mL | > 32 µg/mL | – | – | – | – | – |
| O=C(NOC[C@@H]1CCCCN1)[C@@H]1CC[C@@H]2CN1C(=O)N2OS(=O)(=O)O [Example 18, (2S,5R)-7-oxo-N-((2S)piperidin-2-ylmethyloxy)-6-(sulfooxy)-1,6-diazabicyclo[3.2.1]octane-2-carboxamide] | – | – | – | – | – | – | – | 1 µg/mL (≈ 2.64 µM) | 1 µg/mL (≈ 2.64 µM) | 1 µg/mL (≈ 2.64 µM) | 0.5 µg/mL (≈ 1.32 µM) | MIC (P. aeruginosa Ps 21; PS21, read-out: MIC Ps 21): > 32 µg/mL; MIC (P. aeruginosa Ps 32; PS32, read-out: MIC Ps 32): > 32 µg/mL; MIC (E. Coli H 483): > 32 µg/mL |
| C[C@H]1[C@H](NC(=O)/C(=N\OC(C)(C)C(=O)O)c2csc(N)n2)C(=O)N1S(=O)(=O)O [Aztreonam, reference compound] | > 32 µg/mL | > 32 µg/mL | > 32 µg/mL | > 32 µg/mL | 8 µg/mL (≈ 18.4 µM) | 8 µg/mL (≈ 18.4 µM) | > 32 µg/mL | – | – | – | – | – |
| O=C(NOC[C@@H]1CCCN1)[C@@H]1CC[C@@H]2CN1C(=O)N2OS(=O)(=O)O [Example 1, (2S,5R)-7-oxo-N-[(2S)-pyrrolidin-2-ylmethyloxy]-6-(sulfooxy)-1,6-diazabicyclo[3.2.1]octane-2-carboxamide] | 1 µg/mL (≈ 2.74 µM) | 1 µg/mL (≈ 2.74 µM) | 0.5 µg/mL (≈ 1.37 µM) | 0.5 µg/mL (≈ 1.37 µM) | > 32 µg/mL | > 32 µg/mL | > 32 µg/mL | – | – | – | – | – |
| O=C(NOC1CCNC1)[C@@H]1CC[C@@H]2CN1C(=O)N2OS(=O)(=O)O (stereo partly drawn) [Example 30, (2S,5R)-7-oxo-N-[(3R,S)-pyrrolidin-3-yloxy]-6-(sulfooxy)-1,6-diazabicyclo[3.2.1]octane-2-carboxamide] | – | – | – | – | – | – | – | 8 µg/mL (≈ 22.8 µM) | 8 µg/mL (≈ 22.8 µM) | 4 µg/mL (≈ 11.4 µM) | 4 µg/mL (≈ 11.4 µM) | MIC Ps 21 (P. aeruginosa Ps 21; [10]): >32 µg/mL; MIC Ps 32 (P. aeruginosa Ps 32; [10]): >32 µg/mL; MIC E. Coli H 483 (E. Coli H 483; [7]): >32 µg/mL |
